Counter-ions that a name gives are not always drawn.
What was measured:
[1] = system: bleomycin-induced lung fibrosis; test: Bleomycin-induced lung fibrosis model; type: in vivo, mice; conditions: therapeutic mode; Compound 1 3 mg/kg BID; pirfenidone 100 mg/kg BID; nintedanib 50 mg/kg QD, oral gavage
Procedure: The reduction of lung fibrosis upon MCT4 inhibition is coupled with changes in serum metabolites that indicates turnover of extracellular matrix protein and increased fatty acid oxidation. […] The effects of Compound 1, alone or in combination with approved IPF drugs pirfenidone or nintedanib, were studied in the bleomycin-induced lung fibrosis model in therapeutic mode. Compound 1 was dosed at 3 mg/kg, BID; pirfenidone was dosed at 100 mg/kg, BID; and nintedanib was dosed at 50 mg/kg, QD, all via oral gavage.

[2] = Solid-state stability of API, 2 weeks storage; type: physicochemical
Procedure: Stability of the solid API was assessed after storage at the following conditions for 2 weeks: • 25° C./58% RH (closed) • 25° C./58% RH (open) • 40° C./75% RH (closed) • 40° C./75% RH (open) • 80° C./ambient RH (closed)

[3] = Dynamic vapor sorption (DVS); type: physicochemical; conditions: 25° C.
Description: The Form B tris salt is an off-white crystalline powder consisting of small particles. […] (ΔH=111 J/g).

[4] = Kinetic solubility in biorelevant media; type: physicochemical; conditions: for solubility at 1 h / solubility at 4 h / solubility at 24 h: thermodynamic from solid; for solubility at 1 h: t = 1 hour; for solubility at 4 h: t = 4 hours; for solubility at 24 h: t = 24 hours
[5] = fasted-state simulated gastric fluid (FaSSGF), fassgf or other biorelevant, FaSSGF pH 1.6, room temperature
[6] = fasted-state simulated intestinal fluid (FaSSIF), FaSSIF #2 pH 6.5, room temperature
[7] = fed-state simulated intestinal fluid (FeSSIF), FeSSIF #2 pH 5.8, room temperature

COC(=O)c1ccc2c(c1)NC(=O)/C2=C(\Nc1ccc(N(C)C(=O)CN2CCN(C)CC2)cc1)c1ccccc1 [nintedanib, reference compound]
Additive effect upon Ashcroft Score or αSMA quantitation when added to Compound 1 [1]: did not produce a statistically significant additive effect

Cc1ccc(=O)n(-c2ccccc2)c1 [pirfenidone, reference compound]
Additive effect upon Ashcroft Score or αSMA quantitation when added to Compound 1 [1]: did not produce a statistically significant additive effect

CC(C)(OCc1cc(-c2cccc(OC3CCC3)c2)n(-c2ccccc2N2CCC2)n1)C(=O)O [tris salt Form B]
Content ([2]; 25° C. - 58% RH (c), 2 weeks): 101.1 % w/w
Impurity RRT 0.60 ([2]; 25° C. - 58% RH (c), 2 weeks): <0.05 % area
Impurity RRT 0.86 ([2]; 25° C. - 58% RH (c), 2 weeks): <0.05 % area
Impurity RRT 0.89 ([2]; 25° C. - 58% RH (c), 2 weeks): <0.05 % area
Impurity RRT 0.92 ([2]; 25° C. - 58% RH (c), 2 weeks): 0.13 % area
Impurity RRT 1.21 ([2]; 25° C. - 58% RH (c), 2 weeks): <0.05 % area
Main Peak ([2]; 25° C. - 58% RH (c), 2 weeks): 99.78 % Area
Total Impurities ([2]; 25° C. - 58% RH (c), 2 weeks): 0.22 % area
XRPD ([2]; 25° C. - 58% RH (c), 2 weeks): Consistent with Tris salt (Grp B)
Content ([2]; 25° C. - 58% RH (o), 2 weeks): 101.0 % w/w
Impurity RRT 0.60 ([2]; 25° C. - 58% RH (o), 2 weeks): <0.05 % area
Impurity RRT 0.86 ([2]; 25° C. - 58% RH (o), 2 weeks): <0.05 % area
Impurity RRT 0.89 ([2]; 25° C. - 58% RH (o), 2 weeks): <0.05 % area
Impurity RRT 0.92 ([2]; 25° C. - 58% RH (o), 2 weeks): 0.13 % area
Impurity RRT 1.21 ([2]; 25° C. - 58% RH (o), 2 weeks): <0.05 % area
Main Peak ([2]; 25° C. - 58% RH (o), 2 weeks): 99.78 % Area
Total Impurities ([2]; 25° C. - 58% RH (o), 2 weeks): 0.22 % area
XRPD ([2]; 25° C. - 58% RH (o), 2 weeks): Consistent with Tris salt (Grp B)
Chemical or physical changes on storage ([2]; 25° C./58% RH, 40° C./75% RH (closed and open), 80° C./ambient RH (closed), 2 weeks): No significant chemical or physical changes were observed
Content ([2]; 40° C. - 75% RH (c), 2 weeks): 101.3 % w/w
Impurity RRT 0.60 ([2]; 40° C. - 75% RH (c), 2 weeks): <0.05 % area
Impurity RRT 0.86 ([2]; 40° C. - 75% RH (c), 2 weeks): <0.05 % area
Impurity RRT 0.89 ([2]; 40° C. - 75% RH (c), 2 weeks): <0.05 % area
Impurity RRT 0.92 ([2]; 40° C. - 75% RH (c), 2 weeks): 0.13 % area
Impurity RRT 1.21 ([2]; 40° C. - 75% RH (c), 2 weeks): <0.05 % area
Main Peak ([2]; 40° C. - 75% RH (c), 2 weeks): 99.75 % Area
Total Impurities ([2]; 40° C. - 75% RH (c), 2 weeks): 0.25 % area
XRPD ([2]; 40° C. - 75% RH (c), 2 weeks): Consistent with Tris salt (Grp B)
Content ([2]; 40° C. - 75% RH (o), 2 weeks): 101.1 % w/w
Impurity RRT 0.60 ([2]; 40° C. - 75% RH (o), 2 weeks): <0.05 % area
Impurity RRT 0.86 ([2]; 40° C. - 75% RH (o), 2 weeks): <0.05 % area
Impurity RRT 0.89 ([2]; 40° C. - 75% RH (o), 2 weeks): <0.05 % area
Impurity RRT 0.92 ([2]; 40° C. - 75% RH (o), 2 weeks): 0.13 % area
Impurity RRT 1.21 ([2]; 40° C. - 75% RH (o), 2 weeks): <0.05 % area
Main Peak ([2]; 40° C. - 75% RH (o), 2 weeks): 99.77 % Area
Total Impurities ([2]; 40° C. - 75% RH (o), 2 weeks): 0.23 % area
XRPD ([2]; 40° C. - 75% RH (o), 2 weeks): Consistent with Tris salt (Grp B)
Content ([2]; 80° C. (c), 2 weeks): 101.0 % w/w
Impurity RRT 0.60 ([2]; 80° C. (c), 2 weeks): <0.05 % area
Impurity RRT 0.86 ([2]; 80° C. (c), 2 weeks): <0.05 % area
Impurity RRT 0.89 ([2]; 80° C. (c), 2 weeks): <0.05 % area
Impurity RRT 0.92 ([2]; 80° C. (c), 2 weeks): 0.13 % area
Impurity RRT 1.21 ([2]; 80° C. (c), 2 weeks): <0.05 % area
Main Peak ([2]; 80° C. (c), 2 weeks): 99.75 % Area
Total Impurities ([2]; 80° C. (c), 2 weeks): 0.25 % area
XRPD ([2]; 80° C. (c), 2 weeks): Consistent with Tris salt (Grp B)
Content ([2]; Initial): 101.2 % w/w
Impurity RRT 0.60 ([2]; Initial): <0.05 % area
Impurity RRT 0.86 ([2]; Initial): <0.05 % area
Impurity RRT 0.89 ([2]; Initial): <0.05 % area
Impurity RRT 0.92 ([2]; Initial): 0.13 % area
Impurity RRT 1.21 ([2]; Initial): <0.05 % area
Main Peak ([2]; Initial): 99.81 % Area
Total Impurities ([2]; Initial): 0.19 % area
XRPD ([2]; Initial): Consistent with Tris salt (Grp B)
Hygroscopicity ([3]; 5 to 95% RH): non-hygroscopic
Weight change ([3]; between 5 and 95% RH): approximately 0.1%
Solubility description ([4]; FaSSGF after 1, 4 and 24 hours): practically insoluble
solubility at 1 h [4, 5]: 0.46 µg/mL
solubility at 4 h [4, 5]: 0.35 µg/mL
solubility at 24 h [4, 5]: 0.39 µg/mL
solubility ([4]; fasted-state simulated intestinal fluid (FaSSIF), pH 6.5, thermodynamic from solid, FaSSIF, before gradual decrease, read-out: Solubility, initial): ≥ 3000 µg/mL
solubility at 1 h [4, 6]: 1110 µg/mL
solubility at 4 h [4, 6]: 851 µg/mL
solubility at 24 h [4, 6]: 733 µg/mL
solubility kinetic ([4]; fed-state simulated intestinal fluid (FeSSIF), pH 5.8, thermodynamic from solid, FeSSIF, before precipitation, read-out: Kinetic solubility, initially in solution): ≥ 3000 µg/mL
solubility at 1 h [4, 7]: 99 µg/mL
solubility at 4 h [4, 7]: 96 µg/mL
solubility at 24 h [4, 7]: 95 µg/mL
